Results as given in publication PMC8074792, “An ω-3, but Not an ω-6 Polyunsaturated Fatty Acid Decreases Membrane Dipole Potential and Stimulates Endo-Lysosomal Escape of Penetratin” (Frontiers in Cell and Developmental Biology, 2021).

Experiments:
Type in all cases: cell-based, human
JY cells [1] = assay: Membrane dipole potential, F66 emission ratio, flow cytometry; details: 50 μM fatty acid 48 h, then 50 or 200 μM cholesterol 1 h, n = 5
Description: (§1) The human acute monocytic leukemia-derived cell line THP-1 and the human Epstein-Barr virus (EBV) transformed lymphoblastoid cell line JY were obtained from the American Type Culture Collection (Manassas, VA, United States) and cultivated according to their specifications. […] As controls, cells were treated with the corresponding amounts of native MβCD complexes not containing sterols. To study the effects of fatty acids, cells were incubated for 48 h in medium supplemented with saturated stearic acid (SA, Sigma Aldrich), ω-3 polyunsaturated α-linolenic acid (ALA, Sigma Aldrich) or ω-6 polyunsaturated γ-linolenic acid (GLA, Sigma Aldrich) at various concentrations ranging from 12.5 to 50 μM. […] After washing, the fluorescence intensities of cells were determined with a FACS Aria III flow cytometer (Becton Dickinson, Mountain View, CA, United States) at 37°C. […] Data analysis was carried out in FCS Express (De Novo Software, Los Angeles, CA, United States). The ratio of emitted intensities in the two wavelength ranges (N^∗/T^∗) was determined for each cell and the average value was calculated for each sample from the data of living cells gated on FSC-SSC dot plots. The value of N^∗/T^∗ ratio negatively correlates with the magnitude of DP ([Kovacs et al., 2017]).

THP-1 cells [2] = assay: as above; details: n = 5; for effect of fatty acid pretreatment on cholesterol-induced DP elevation (Rem, F66): 50 μM fatty acid 48 h, then 50 or 200 μM cholesterol 1 h; for Rem, F66: fatty acid 12.5-50 μM for 48 h
Description: as §1

JY cells [3] = assay: Membrane hydration, PY3174 generalized polarization, confocal microscopy; details: 200 μM sterol 1 h or 50 μM fatty acid 48 h, efficacy order 6KC > cholesterol ≥ 7DHC, effects of 7DHC and SA not statistically significant
Description: (§2) For these measurements, cells were labeled with 10 μM PY3174 for 20 min at room temperature. […] During processing, segmentation of images into membrane and non-membrane pixels was carried out with the manually seeded watershed algorithm using a custom-written MATLAB program as described previously ([Kovacs et al., 2017]). The average value of general polarization correlating with the degree of membrane compactness ([[…] et al., 2013]) was calculated from the data of cell membrane pixels after background subtraction using […]

THP-1 cells [4] = assay: as above; details: 200 μM sterol 1 h or 50 μM fatty acid 48 h, efficacy order 6KC > cholesterol ≥ 7DHC, all statistically significant
Description: as §2

JY cells [5] = assay: Penetratin uptake and endo-lysosomal escape, time-correlated flow cytometry; details: 50 μM fatty acid 48 h, 5 μM AFDye532- and 5 μM NF-penetratin, 37°C, compared at 900 s, n = 5
Source text: (§3) Penetratin ([…]-amide, molecular weight 2245.75 g/mol) was synthesized manually on TentaGel R RAM (Rapp Polymere, Tübingen, Germany), a low crosslinked polystyrene PEG copolymer resin by the solid-phase method of Merrifield with standard Fmoc chemistry, as described in detail in our recent study ([Batta et al., 2020]). After coupling the last arginine, one half of the penetratin was reacted with AFDye532 N-hydroxysuccinimide ester (molecular weight 723.77 g/mol, Fluoroprobes, Scottsdale, AZ, United States), while the other half with 5(6)-carboxynaphthofluorescein N-succinimidyl ester (molecular weight 573.51 g/mol, Darmstadt, Germany). Completion of the coupling was assessed by Kaiser test, which was followed by deprotection and release from the resin. After filtration and precipitation with cold diethyl ether, the crude products were purified by preparative reversed-phase HPLC (JASCO, Victoria, BC, Canada) on a C18 column and lyophilized. The purity of the products (>95%) was assessed by reversed-phase HPLC (JASCO) equipped with an analytical C18 column. […] These values well correlated with the predicted masses of the labeled peptides (2983.59 and 2833.33, respectively).
(§4) Total cellular penetratin uptake and endo-lysosomal escape was determined as described previously ([Batta et al., 2020]). Briefly, control THP-1 or JY cells and those treated with 50 μM ALA, GLA or SA for 48 h at 37°C were incubated in the continuous presence of 5 μM AFDye532-penetratin, 5 μM NF-penetratin and 0.25 μg/ml DAPI at 37°C in the thermostated sample holder of a FACS Aria III flow cytometer. The fluorescence intensity of DAPI was measured using an excitation at 405 nm and an emission filter 450/20 nm. AFDye532 and NF were excited at 488 and 561 nm, respectively, and their fluorescence was determined using emission filters 530/30 and 670/14 nm, respectively. Measurements started immediately after addition of DAPI and penetratin and continued for 20 min at 37°C. Experimental data were analyzed first in FCS Express. Time-correlated fluorescence intensity values of DAPI-negative living cells were exported after spectral compensation and the moving averages of samples were calculated with a window size of 10 s. […] During analysis, fluorescence intensity values were first normalized to the average intensity in the first time window, which was followed by calculation of the fluorescence ratio from the normalized values.

THP-1 cells [6] = assay: as above; details: 50 μM fatty acid 48 h, 5 μM AFDye532- and 5 μM NF-penetratin, 37°C, compared at 900 s, n = 5
Source text: as §3, §4

JY cells [7] = assay: Membrane dipole potential, di-8-ANEPPS excitation ratio, spectrofluorometry; details: fatty acid 12.5-50 μM for 48 h, result at maximal 50 μM, n = 5
Description: (§5) The human acute monocytic leukemia-derived cell line THP-1 and the human Epstein-Barr virus (EBV) transformed lymphoblastoid cell line JY were obtained from the American Type Culture Collection (Manassas, VA, United States) and cultivated according to their specifications. […] As controls, cells were treated with the corresponding amounts of native MβCD complexes not containing sterols. To study the effects of fatty acids, cells were incubated for 48 h in medium supplemented with saturated stearic acid (SA, Sigma Aldrich), ω-3 polyunsaturated α-linolenic acid (ALA, Sigma Aldrich) or ω-6 polyunsaturated γ-linolenic acid (GLA, Sigma Aldrich) at various concentrations ranging from 12.5 to 50 μM. […] After washing, cells were kept on ice and samples were subsequently warmed to 37°C right before measurements carried out with a Fluorolog-3 spectrofluorometer (Horiba Jobin Yvon, Edison, NJ, United States). During measurements, the cuvette holder was kept at 37°C using a circulating water bath. Excitation spectra were recorded between 380 and 550 nm with the detected emission wavelength set to 660 nm in order to minimize effects of possible changes in membrane fluidity ([Clarke and Kane, 1997]). The ratio of fluorescence intensities integrated between excitation wavelengths 410–440 nm and 490–520 nm was calculated for each sample, which positively correlates with the magnitude of DP ([Clarke and Kane, 1997]; [Kovacs et al., 2017]; [Batta et al., 2020]).

THP-1 cells [8] = assay: as above; details: fatty acid 12.5-50 μM for 48 h, result at maximal 50 μM, n = 5
Description: as §5

Compound	effect of fatty acid pretreatment on cholesterol-induced DP elevation (Rem, F66) (JY cells [1])	effect of fatty acid pretreatment on cholesterol-induced DP elevation (Rem, F66) (THP-1 cells [2])	Rem, F66 (THP-1 cells [2])	PY3174 generalized polarization in the cell membrane (inversely correlates with membrane hydration) (JY cells [3])	PY3174 generalized polarization in the cell membrane (inversely correlates with membrane hydration) (THP-1 cells [4])	ratio of NF and AFDye532 intensities (endo-lysosomal escape of penetratin) vs controls (JY cells [5])	ratio of NF and AFDye532 intensities (endo-lysosomal escape of penetratin) vs controls (THP-1 cells [6])	Rexc, di-8-ANEPPS (JY cells [7])	Rexc, di-8-ANEPPS (THP-1 cells [8])
CCCCC/C=C\C/C=C\C/C=C\CCCCC(=O)O [GLA, γ-linolenic acid]	a tendency to augment the cholesterol-induced DP changes	a tendency to augment the cholesterol-induced DP changes	opposite changes	reduced	reduced	no significant changes	no significant changes	significant increases	significant increases
CC/C=C\C/C=C\C/C=C\CCCCCCCC(=O)O [ALA, α-linolenic acid]	significantly decreased the DP-elevating effect of cholesterol	significantly decreased the DP-elevating effect of cholesterol	dose-dependently and significantly increased	reduced	reduced	significantly increased	significantly increased	significantly decreased	significantly decreased
